Reference: article PMC4254016 (Bioorganic & medicinal chemistry, 2014)

Experiments:
P. aeruginosa PAO1 = test: Bacterial growth inhibition, wildtype PAO1; type: cell-based, Pseudomonas aeruginosa; details: high iron (200 µM FeCl3), 24 hrs
salicylate synthase Irp9 = salicylate synthase Irp9 (Yersinia enterocolitica, UniProt Q9X9I8); type: biochemical
ΔpvdA PAO1 = type: cell-based, Pseudomonas aeruginosa; details: high iron (200 µM FeCl3), 24 hrs
[1] = target: isochorismate-pyruvate lyase PchB (Pseudomonas aeruginosa, UniProt Q51507); type: biochemical
ΔpchE PAO1 = type: cell-based, Pseudomonas aeruginosa; details: high iron (200 µM FeCl3), 24 hrs
chorismate mutase EcCM = chorismate mutase EcCM (Escherichia coli, UniProt P0A9J8); type: biochemical, E. coli
PchB = details: read-out: Ki PchB; cited from earlier work

Chain of salicylate synthase Irp9 (Q9X9I8 1-434): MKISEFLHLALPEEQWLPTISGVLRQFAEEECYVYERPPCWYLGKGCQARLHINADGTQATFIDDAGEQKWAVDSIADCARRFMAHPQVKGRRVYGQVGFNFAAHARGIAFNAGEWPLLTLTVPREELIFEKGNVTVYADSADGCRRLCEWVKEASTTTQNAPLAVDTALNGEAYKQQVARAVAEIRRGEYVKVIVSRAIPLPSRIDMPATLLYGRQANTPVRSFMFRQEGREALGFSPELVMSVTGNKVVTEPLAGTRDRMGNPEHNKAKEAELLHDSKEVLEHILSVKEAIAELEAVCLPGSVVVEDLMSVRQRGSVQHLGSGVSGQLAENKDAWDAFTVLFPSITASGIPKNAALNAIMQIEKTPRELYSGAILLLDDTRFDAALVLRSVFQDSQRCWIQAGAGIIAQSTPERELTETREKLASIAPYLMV
Chain of isochorismate-pyruvate lyase PchB (Q51507 whole entry): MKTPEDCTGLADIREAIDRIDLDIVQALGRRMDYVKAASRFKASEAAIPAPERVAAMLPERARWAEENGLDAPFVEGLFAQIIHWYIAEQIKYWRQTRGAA
Chain of chorismate mutase EcCM (P0A9J8 1-92): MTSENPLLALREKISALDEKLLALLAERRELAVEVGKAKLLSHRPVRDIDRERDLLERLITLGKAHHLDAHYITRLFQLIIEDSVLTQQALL

Structure (SMILES): COC(=O)Oc1c([N+](=O)[O-])cc2oc(=O)sc2c1[N+](=O)[O-] [Compound 10]
- EC50 growth inhibition PAO1 p.a. (P. aeruginosa PAO1): did not cause growth inhibition
- mode of inhibition of Irp9 (salicylate synthase Irp9): competitive inhibitor
- EC50 growth inhibition ΔpvdA p.a. (ΔpvdA PAO1): did not cause growth inhibition
- mode of inhibition of PchB [1]: competitive inhibitors
- EC50 growth inhibition ΔpchE p.a. (ΔpchE PAO1): did not cause growth inhibition
- mode of inhibition of EcCM (chorismate mutase EcCM): competitive inhibitors

Structure (SMILES): O=P(O)(O)C12CC3CC(CC(C3)C1)C2 [adamantane-1-phosphonate]
- Ki (PchB): > 5 mM
